Among the data in PubChem BioAssay AID1745844 (Carcinogenic Potency Database (CPDB), 2022) are carcinogen call and TD50 values, retold here.

The test system of the data set is rodent lifetime carcinogenesis bioassay, tumor incidence TD50. As to the kind of experiment: carcinogenic potency in animals, long-term in vivo studies, CPDB compilation (AID 1745844).
[1] abbreviates: mouse, strain B6C3F1, females, in feed, site: any site (literature study), lesion: several types, types named in the paper, dosed 103 weeks, study length 104 weeks.
Setting [2] is: mouse, strain B6C3F1, males, in feed, site: any site (literature study), lesion: several types, types named in the paper, dosed 103 weeks, study length 104 weeks.
Where [3] appears, read: mouse, strain B6C3F1, males, in feed, site: liver, lesion: hepatocellular adenoma + hepatocellular carcinoma + neoplastic nodule, dosed 103 weeks, study length 104 weeks.

Active and inactive are the calls of the source. The rule behind the calls is not given here.

As to `[Ge+4].[Na+].[Na+].[O-2].[O-2].[O-2]`, the carcinogen call (mouse, strain Charles River CD1, both sexes, in drinking water, site: any site (literature study), lesion: benign tumor, dosed 104 weeks, study length 104 weeks) is “negative (inactive)”; the carcinogen call (mouse, strain Charles River CD1, both sexes, in drinking water, site: any site (literature study), lesion: malignant tumor, dosed 104 weeks, study length 104 weeks) is “negative (inactive)”; the carcinogen call (mouse, strain Charles River CD1, both sexes, in drinking water, site: any site (literature study), lesion: several types, types named in the paper, dosed 104 weeks, study length 104 weeks) was “negative (inactive)”; the carcinogen call (mouse, strain Charles River CD1, both sexes, in drinking water, site: liver, lesion: several types, types named in the paper, dosed 104 weeks, study length 104 weeks) was “negative (inactive)”; the carcinogen call (mouse, strain Charles River CD1, both sexes, in drinking water, site: lung, lesion: several types, types named in the paper, dosed 104 weeks, study length 104 weeks) was “negative (inactive)”; the carcinogen call (rat, strain Long-Evans BLU:(LE), both sexes, in drinking water, site: any site (literature study), lesion: malignant tumor, dosed 149 weeks, study length 149 weeks) was “negative (inactive)”. In addition, the carcinogen call is, setting by setting: (rat, strain Long-Evans BLU:(LE), both sexes, in drinking water, site: any site (literature study), lesion: one or several types, types not named, dosed 149 weeks, study length 149 weeks) “negative (inactive)”; (rat, strain Long-Evans BLU:(LE), both sexes, in drinking water, site: liver, lesion: one or several types, types not named, dosed 149 weeks, study length 149 weeks) “negative (inactive)”.

Usually TD50 stands for the dose at which the toxic effect under study appears in half of the subjects. Turning to `Nc1ccc(/C=C/c2ccc(N)c(S(=O)(=O)O)c2)c(S(=O)(=O)O)c1`, the carcinogen call under setting [1] is “negative (inactive)”. Also, the TD50 is, setting by setting: under setting [2], 12900 mg/kg/day; under setting [3], 9720 mg/kg/day; (mouse, strain B6C3F1, males, in feed, site: liver, lesion: hepatocellular adenoma, dosed 103 weeks, study length 104 weeks) 2570 mg/kg/day (inactive); (rat, strain Fischer 344, females, in feed, site: any site (literature study), lesion: several types, types named in the paper, dosed 103 weeks, study length 104 weeks) 17600 mg/kg/day (inactive); (rat, strain Fischer 344, males, in feed, site: any site (literature study), lesion: several types, types named in the paper, dosed 103 weeks, study length 104 weeks) 5810 mg/kg/day (inactive); (rat, strain Fischer 344, males, in feed, site: liver, lesion: hepatocellular adenoma + hepatocellular carcinoma + neoplastic nodule, dosed 103 weeks, study length 104 weeks) 5020 mg/kg/day.

On to `O=S(O)O`, for which the TD50 was 204000 mg/kg/day (inactive) (mouse, strain ICR/Jcl, females, in drinking water, site: liver, lesion: hemangioendothelial sarcoma, dosed 104 weeks, study length 104 weeks); 100000 mg/kg/day (inactive) (mouse, strain ICR/Jcl, females, in drinking water, site: lung, lesion: adenocarcinoma, dosed 104 weeks, study length 104 weeks); 33600 mg/kg/day (inactive) (mouse, strain ICR/Jcl, females, in drinking water, site: lung, lesion: adenoma, dosed 104 weeks, study length 104 weeks); 84800 mg/kg/day (inactive) (mouse, strain ICR/Jcl, males, in drinking water, site: lung, lesion: adenocarcinoma, dosed 104 weeks, study length 104 weeks); 84800 mg/kg/day (inactive) (mouse, strain ICR/Jcl, males, in drinking water, site: lung, lesion: adenoma, dosed 104 weeks, study length 104 weeks). For the same molecule, the carcinogen call (mouse, strain ICR/Jcl, males, in drinking water, site: liver, lesion: one or several types, types not named, dosed 104 weeks, study length 104 weeks) was “negative (inactive)”.

For `COc1ccc(O)cc1`, the TD50 (rat, strain F344/DuCrj, females, in feed, site: forestomach, lesion: squamous-cell carcinoma, dosed 104 weeks, study length 104 weeks) was 3070 mg/kg/day; the TD50 (rat, strain F344/DuCrj, females, in feed, site: forestomach, lesion: squamous-cell papilloma, dosed 104 weeks, study length 104 weeks) was 2580 mg/kg/day; the TD50 (rat, strain F344/DuCrj, males, in feed, site: forestomach, lesion: papilloma, dosed 51 weeks, study length 52 weeks) is 1460 mg/kg/day; the TD50 (rat, strain F344/DuCrj, males, in feed, site: forestomach, lesion: squamous-cell carcinoma, dosed 104 weeks, study length 104 weeks) was 377 mg/kg/day; the TD50 (rat, strain F344/DuCrj, males, in feed, site: forestomach, lesion: squamous-cell papilloma, dosed 104 weeks, study length 104 weeks) is 832 mg/kg/day; the TD50 (rat, strain F344/DuCrj, males, in feed, site: stomach, glandular, lesion: adenoma, dosed 104 weeks, study length 104 weeks) turned out to be 16200 mg/kg/day. Moreover, the carcinogen call is “negative (inactive)” (rat, strain F344/DuCrj, males, in feed, site: forestomach, lesion: one or several types, types not named, dosed 51 weeks, study length 52 weeks) and “negative (inactive)” (rat, strain F344/DuCrj, males, in feed, site: stomach, glandular, lesion: one or several types, types not named, dosed 51 weeks, study length 52 weeks).

As for `Cc1noc(NS(=O)(=O)c2ccc(N)cc2)c1C`, the TD50 under setting [1] was found to be 8180 mg/kg/day; the TD50 (mouse, strain B6C3F1, females, in feed, site: liver, lesion: hepatocellular adenoma + hepatocellular carcinoma + neoplastic nodule, dosed 103 weeks, study length 104 weeks) came out at 2650 mg/kg/day; the TD50 (mouse, strain B6C3F1, females, in feed, site: liver, lesion: hepatocellular carcinoma, dosed 103 weeks, study length 104 weeks) is 2650 mg/kg/day (inactive); the TD50 (mouse, strain B6C3F1, females, in feed, site: lung, lesion: alveolar/bronchiolar adenoma + alveolar/bronchiolar carcinoma, dosed 103 weeks, study length 104 weeks) amounted to 11900 mg/kg/day; the TD50 under setting [3] amounted to 6910 mg/kg/day; the TD50 (mouse, strain B6C3F1, males, in feed, site: lung, lesion: alveolar/bronchiolar adenoma + alveolar/bronchiolar carcinoma, dosed 103 weeks, study length 104 weeks) is 49500 mg/kg/day. The TD50 by setting is: (rat, strain Fischer 344, males, in feed, site: any site (literature study), lesion: several types, types named in the paper, dosed 103 weeks, study length 105 weeks) 135 mg/kg/day (inactive); (rat, strain Fischer 344, males, in feed, site: liver, lesion: hepatocellular adenoma + hepatocellular carcinoma + neoplastic nodule, dosed 103 weeks, study length 105 weeks) 26300 mg/kg/day. The carcinogen call reads like this: under setting [2], “negative (inactive)”; (rat, strain Fischer 344, females, in feed, site: any site (literature study), lesion: several types, types named in the paper, dosed 103 weeks, study length 106 weeks) “negative (inactive)”.

For `O=NN1CCCCCCC1`, the TD50 is, setting by setting: (rat, strain Fischer 344, males, in drinking water, site: esophagus, lesion: basal-cell carcinoma, dosed 50 weeks, study length 125 weeks) 0.159 mg/kg/day; (rat, strain Fischer 344, males, in drinking water, site: esophagus, lesion: several types, types named in the paper, dosed 25 weeks, study length 115 weeks) 0.118 mg/kg/day; (rat, strain Fischer 344, males, in drinking water, site: esophagus, lesion: several types, types named in the paper, dosed 100 weeks, study length 115 weeks) 0.0735 mg/kg/day; (rat, strain Fischer 344, males, in drinking water, site: liver, lesion: several types, types named in the paper, dosed 100 weeks, study length 115 weeks) 0.198 mg/kg/day; (rat, strain Fischer 344, males, in drinking water, site: tongue, lesion: basal-cell carcinoma, dosed 50 weeks, study length 125 weeks) 0.171 mg/kg/day; (rat, strain Fischer 344, males, in drinking water, site: tongue, lesion: basal-cell carcinoma, dosed 100 weeks, study length 115 weeks) 0.105 mg/kg/day. The TD50 was 0.0363 mg/kg/day (rat, strain Fischer 344, males, in drinking water, site: upper gastrointestinal tract, lesion: carcinoma, dosed 25 weeks, study length 115 weeks); 0.0512 mg/kg/day (rat, strain Fischer 344, males, in drinking water, site: upper gastrointestinal tract, lesion: several types, types named in the paper, dosed 25 weeks, study length 115 weeks); 0.0571 mg/kg/day (rat, strain Fischer 344, males, in drinking water, site: upper gastrointestinal tract, lesion: several types, types named in the paper, dosed 50 weeks, study length 125 weeks); 0.0292 mg/kg/day (rat, strain Fischer 344, males, in drinking water, site: upper gastrointestinal tract, lesion: several types, types named in the paper, dosed 100 weeks, study length 115 weeks). Besides, the carcinogen call (rat, strain Fischer 344, males, in drinking water, site: liver, lesion: hepatocellular carcinoma, dosed 50 weeks, study length 125 weeks) is “positive”.

Regarding `Cn1cc[nH]c1=S`, the TD50 is 9.47 mg/kg/day (rat, strain Harlan, females, in feed, site: thyroid gland, lesion: follicular adenocarcinoma, dosed 104 weeks, study length 104 weeks); 1.57 mg/kg/day (rat, strain Harlan, females, in feed, site: thyroid gland, lesion: follicular-cell adenoma, dosed 104 weeks, study length 104 weeks); 37.6 mg/kg/day (rat, strain Harlan, males, in feed, site: thyroid gland, lesion: follicular adenocarcinoma, dosed 104 weeks, study length 104 weeks); 0.9 mg/kg/day (rat, strain Harlan, males, in feed, site: thyroid gland, lesion: follicular-cell adenoma, dosed 104 weeks, study length 104 weeks).

In the case of `CCCCNC(=O)NS(=O)(=O)c1ccc(C)cc1`, the TD50 (mouse, strain B6C3F1, females, in feed, site: any site (literature study), lesion: several types, types named in the paper, dosed 78 weeks, study length 103 weeks) is 24200 mg/kg/day (inactive). Moreover, the carcinogen call (mouse, strain B6C3F1, males, in feed, site: any site (literature study), lesion: several types, types named in the paper, dosed 78 weeks, study length 102 weeks) was “negative (inactive)”; the carcinogen call (rat, strain Fischer 344, females, in feed, site: any site (literature study), lesion: several types, types named in the paper, dosed 78 weeks, study length 106 weeks) was “negative (inactive)”; the carcinogen call (rat, strain Fischer 344, males, in feed, site: any site (literature study), lesion: several types, types named in the paper, dosed 78 weeks, study length 106 weeks) was “negative (inactive)”.

With `Nc1nnc(-c2ccc([N+](=O)[O-])o2)s1`, the TD50 by setting is: (rat, strain Sprague-Dawley, females, in feed, site: any site (literature study), lesion: several types, types named in the paper, dosed 45 weeks, study length 66 weeks) 0.662 mg/kg/day; (rat, strain Sprague-Dawley, females, in feed, site: forestomach, lesion: squamous-cell papilloma, dosed 45 weeks, study length 66 weeks) 23.7 mg/kg/day; (rat, strain Sprague-Dawley, females, in feed, site: kidney/pelvis, lesion: transitional-cell carcinoma, dosed 45 weeks, study length 66 weeks) 73.4 mg/kg/day; (rat, strain Sprague-Dawley, females, in feed, site: lung, lesion: alveolar-cell carcinoma, dosed 45 weeks, study length 66 weeks) 73.4 mg/kg/day; (rat, strain Sprague-Dawley, females, in feed, site: mammary gland, lesion: adenocarcinoma, dosed 45 weeks, study length 66 weeks) 1.2 mg/kg/day; (rat, strain Sprague-Dawley, females, in feed, site: mammary gland, lesion: several types, types named in the paper, dosed 45 weeks, study length 66 weeks) 0.662 mg/kg/day.

Consider `Nc1nc(-c2ccc([N+](=O)[O-])o2)cs1`, for which the TD50 by setting is: (mouse, strain Swiss, females, in feed, site: any site (literature study), lesion: several types, types named in the paper, dosed 46 weeks, study length 55 weeks) 6.83 mg/kg/day; (mouse, strain Swiss, females, in feed, site: forestomach, lesion: several types, types named in the paper, dosed 46 weeks, study length 55 weeks) 7.87 mg/kg/day; (mouse, strain Swiss, females, in feed, site: forestomach, lesion: squamous-cell papilloma, dosed 46 weeks, study length 55 weeks) 11.5 mg/kg/day; (rat, strain Fischer, females, in feed, site: forestomach, lesion: several types, types named in the paper, dosed 52 weeks, study length 68 weeks) 5.85 mg/kg/day; (rat, strain Fischer, females, in feed, site: forestomach, lesion: squamous-cell papilloma, dosed 52 weeks, study length 68 weeks) 8.94 mg/kg/day; (rat, strain Fischer, females, in feed, site: urinary bladder, lesion: several types, types named in the paper, dosed 52 weeks, study length 68 weeks) 30.3 mg/kg/day.
